Assay results as given in patent US20060247223A1, “Non-imidazole alkylamines as histamine H3- receptor ligands and their therapeutic applications” (priority 1998, published 2006).
Where a name gives a salt, the structure may show the parent alone. Read-outs that look alike come from different tables or passages of the source.

Legend:
[1] = biological target: T1, H3 receptor (Rattus norvegicus, UniProt Q9QYN8); assay: release of neosynthesized tritiated histamine from rat cerebral cortex synaptosomes; type: biochemical
T1 construct: release of neosynthesized tritiated histamine from rat cerebral cortex synaptosomes; from tissue; host or cells: rat cerebral cortex synaptosomes
T1 sequence (Q9QYN8 whole entry): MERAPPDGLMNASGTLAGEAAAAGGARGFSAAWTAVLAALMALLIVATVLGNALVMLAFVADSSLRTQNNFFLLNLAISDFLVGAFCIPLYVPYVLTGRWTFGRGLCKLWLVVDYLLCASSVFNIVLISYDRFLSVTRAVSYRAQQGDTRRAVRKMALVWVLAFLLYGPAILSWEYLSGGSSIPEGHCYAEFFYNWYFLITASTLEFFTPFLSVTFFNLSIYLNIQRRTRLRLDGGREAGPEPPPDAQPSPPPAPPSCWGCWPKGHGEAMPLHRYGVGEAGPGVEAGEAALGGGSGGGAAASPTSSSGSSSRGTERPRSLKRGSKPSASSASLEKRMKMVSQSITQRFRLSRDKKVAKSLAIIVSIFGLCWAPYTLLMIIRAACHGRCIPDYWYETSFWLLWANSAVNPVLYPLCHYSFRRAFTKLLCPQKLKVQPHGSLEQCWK

[2] = biological target: T2, H3 receptor (Mus musculus, UniProt P58406); assay: tele-methylhistamine level variations in the brain of mice after p.o. administration; type: in vivo; conditions: for ED50: mouse, po, brain tele-methylhistamine level, dose responsible for an half maximal effect; for ED50 (mg/kg/p.o.): tele-methylhistamine level in brain, dose for half maximal effect
T2 construct: estimated in vivo by the measurement of the tele-methylhistamine level variations in the brain of mice; from tissue; host or cells: mouse brain, in vivo after p.o. administration
T2 sequence (P58406 whole entry): as the sequence (Q9QYN8 whole entry) above, with T15A, A286T, A290G, R387H, I389V counted along it
From the text: At various time after p.o. administration of the. compounds, the effect of agonists and antagonists are evidenced by the decrease and increase respectively in telemethylhistamine level induced.
The changes are compared to those induced by reference compounds given in high dosage and this allows the calculation of the ED50 value for each compound which correspond to the dose responsible for an half maximal effect.

[3] = biological target: T3, H3 receptor (Cavia porcellus, UniProt Q9JI35); assay: guinea-pig ileum longitudinal muscle strips, electrically stimulated contraction, (R)α-methylhistamine curves with antagonist; type: biochemical; conditions: against (R)α-methylhistamine, 1 μM mepyramine present, read-out: H3-receptor antagonist activity pA2 (guinea-pig ileum) (converted)
T3 construct: longitudinal muscle strips from guinea-pig small intestine were dissected out; from tissue; host or cells: guinea-pig small intestine longitudinal muscle strips
T3 sequence (Q9JI35 whole entry): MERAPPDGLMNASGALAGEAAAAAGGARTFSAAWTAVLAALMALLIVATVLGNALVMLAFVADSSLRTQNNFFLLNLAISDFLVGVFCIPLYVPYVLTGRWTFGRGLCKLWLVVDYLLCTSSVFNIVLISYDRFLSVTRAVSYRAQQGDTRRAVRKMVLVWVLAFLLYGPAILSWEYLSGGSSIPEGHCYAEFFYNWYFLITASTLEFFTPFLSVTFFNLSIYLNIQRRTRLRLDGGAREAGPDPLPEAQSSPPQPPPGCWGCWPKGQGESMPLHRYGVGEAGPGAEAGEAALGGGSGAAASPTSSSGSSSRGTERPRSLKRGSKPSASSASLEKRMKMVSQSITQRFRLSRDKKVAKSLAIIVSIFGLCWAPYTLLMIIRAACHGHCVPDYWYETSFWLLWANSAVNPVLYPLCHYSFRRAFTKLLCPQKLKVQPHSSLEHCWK
Procedure: Briefly, longitudinal muscle strips from guinea-pig small intestine were dissected out and incubated in a gassed O2/CO2 (95%/5%) modified Krebs-Ringer's bicarbonate medium at +37° C. in presence of 1 μM mepyramine to block the H1 receptor. After equilibration, contractile activity under stimulation (rectangular pulses of 15 V, 0.5 msec, 0.1 Hz) was recorded. Concentration-response curves of the effect of (R)α-Methylhistamine alone or together with the antagonist were established.

[4] = H3 receptor, rat cerebral cortex synaptosomes, reversal of (R)α-methylhistamine inhibition of tritiated histamine release, read-out: Ki

Compound	ED50 (mg/kg/p.o.) [2]	Ki [1, 4]	other results
N#Cc1ccc(OCCCN2CCCCC2)cc1 [Example 59, 1-[3-(4-cyanophenoxy)propyl]piperidine]	0.20 mg/kg/p.o.	–	Ki [1]: 11 ± 2 nM; ED50 [2]: 0.02 mg/kg
CCN(CC)CCCOc1ccc(C(C)O)cc1 (stereo not drawn) [Example 63, N-3-[4-(1-hydroxyethyl)-phenoxy]-propyl-diethylamine]	0.45 mg/kg/p.o.	60 ± 18 nM	–
CCCCCNC(=O)OCCCN1CCCCC1 [Example 120, N-Pentyl-3-piperidinopropyl carbamate]	–	–	Kb [3]: 501 nM
c1ccc2sc(NCCN3CCCCC3)nc2c1 [Example 131, 2-((2-Piperidinoethyl)amino)benzothiazole]	–	–	Kb [3]: 251 nM
N#Cc1ccc(OCCCN2CCCCCC2)cc1 [Example 60, N-[3-(4-cyanophenoxy)-propyl]-hexamethyleneimine]	0.64 mg/kg/p.o.	8.7 ± 2.1 nM	–
O=[N+]([O-])c1ccc(OCCCCCN2CCCC2)cc1 [Example 18, 1-[5-(4-nitrophenoxy)-pentyl]-pyrrolidine]	1.1 mg/kg/p.o.	39 ± 11 nM	–
C[C@H]1C[C@H](C)CN(CCCOc2ccc(C(=O)C3CC3)cc2)C1 (relative stereo) [Example 101, 1-[3-(4-cyclopropanecarbonylphenoxy)propyl]-trans-3,5 dimethylpiperidine]	–	–	ED50 [2]: 0.17 mg/kg
CCC(=O)c1ccc(OCCCN2CCCC(C)C2)cc1 (stereo not drawn) [Example 88, 1-[3-(4-propionylphenoxy)propyl]-3-methylpiperidine]	–	–	ED50 [2]: 0.14 mg/kg
CC(O)c1ccc(OCCCCCN2CCCC2)cc1 (stereo not drawn) [Example 50, 1-{5-[4-(1-hydroxyethyl)-phenoxy]-pentyl}-pyrrolidine]	1.0 mg/kg/p.o.	28 ± 7 nM	–
CCN(CC)CCCOc1ccc(C#N)cc1 [Example 43, N-[3-(4-cyanophenoxy)-propyl]-diethylamine]	0.50 mg/kg/p.o.	95 ± 28 nM	–
CCN(CC)CCCOc1ccc(C(C)=O)cc1 [Example 46, N-[3-(4-acetylphenoxy)-propyl]-diethylamine]	0.44 mg/kg/p.o.	20 ± 7 nM	–
CCCC(=O)c1ccc(OCCCN2CCCCC2)cc1 [Example 74, 1-[3-(4-buyrylphenoxy)propyl]piperidine]	–	–	ED50 [2]: 0.21 mg/kg
O=C(c1ccc(OCCCN2CCCCC2)cc1)C1CC1 [Example 76, 1-[3-(4-cyclopropanecarbonylphenoxy)propyl]piperidine]	–	–	ED50 [2]: 0.18 mg/kg
c1ccc(CCCCCCN2CCCCC2)cc1 [Example 136, N-(6-Phenylhexyl)piperidine]	–	–	Kb [3]: 316 nM
CC(=O)N1CCN(CCCCCOc2ccccc2)CC1 (as salt: oxalate) [Example 11, 1-acetyl-4-(5-phenoxypentyl)-piperazine]	–	–	melting point: 186 to 188 °C
O=C(Cc1ccccc1)c1ccc(OCCCCCN2CCCC2)cc1 (as salt: oxalate) [Example 45, 1-{5-[4-(phenylacetyl)-phenoxy]-pentyl}pyrrolidine]	–	–	melting point: 177 to 178 °C
CC1CCCCN1CCCCCOc1ccccc1 (stereo not drawn) (as salt: oxalate) [Example 7, 1-(5-phenoxypentyl)-2-methyl-piperidine]	–	–	melting point: 80 to 83 °C
Clc1ccc(OCCCCCN2CCCC2)cc1 (as salt: oxalate) [Example 19, 1-[5-(4-chlorophenoxy)-pentyl]-pyrrolidine]	–	–	melting point: 139 to 141 °C
CC1CCCN(CCCOc2ccc([N+](=O)[O-])cc2)C1 (stereo not drawn) (as salt: oxalate) [Example 83, 1-[3-(4-nitrophenoxy)propyl]-3-methylpiperidine]	–	–	melting point: 172 to 174 °C
Cc1ccc(OCCCCCN2CCCC2)cc1 (as salt: oxalate) [Example 21, 1-[5-(4-methylphenoxy)-pentyl]-pyrrolidine]	–	–	melting point: 138 to 140 °C
CCCCCCC(=O)N1CCC(N2CCCCC2)CC1 [Example 124, N-Heptanoyl-1,4′-bipiperidine]	–	–	Kb [3]: 398 nM

The next lines start with results.

ED50 (mg/kg/p.o.) [2]	Ki [1, 4]	Compound	other results
0.8 mg/kg/p.o.	2.7 ± 0.9 nM	CCN(CC)CCCOc1ccc(/C(C)=N/O)cc1 [Example 64, 4-(3-diethylaminopropoxy)-acetophenone-oxime]	–
0.5 mg/kg/p.o.	4.6 ± 2 nM	CC(=O)c1ccc(OCCCN2CCC(C)CC2)cc1 [Example 68, 1-[3-(4-acetylphenoxy)-propyl]-4-methyl-piperidine]	–
0.3 mg/kg/p.o.	3.7 ± 0.5 nM	CC(=O)c1ccc(OCCCN2CCCC(C)C2)cc1 (stereo not drawn) [Example 66, 1-[3-(4-acetylphenoxy)-propyl]-3-methyl-piperidine]	–
0.6 mg/kg/p.o.	4.7 ± 0.8 nM	CCC(=O)c1ccc(OCCCN2CCCCC2)cc1 [Example 69, 1-[3-(4-propionylphenoxy)-propyl]-piperidine]	–
1.1 mg/kg/p.o.	62 ± 15 nM	CCN(CC)CCCCOc1ccc(C#N)cc1 [Example 56, N-[4-(4-cyanophenoxy)-butyl]-diethylamine]	–
